Source: US11766434B2, “Pyrimidinone derivatives as CDC7 inhibitors” (Cancer Research Technology Limited, priority 2016, dated 2023)

Legend:
[1] = target: T1, Cdc7 (Homo sapiens, UniProt O00311); assay: Cdc7 cell pharmacodynamics assay Method 3: pS53MCM2 levels in SW48 cells; format: cell-based; parameters: endogenous in cells; host or cells: SW48; conditions: 6 hours treatment, read-out: Biomarker Method 3 (pEC50) (converted)
Source text: This protocol describes a method to investigate the inhibition of Cdc7 activity by measuring pS53MCM2 levels in cells, after treatment with compounds.
• SW48 cells • RPMI 1640 (Sigma, R5886) • 10% FCS (Sera Laboratories International Ltd, EU000F Batch: 108005) • 100× L-Glutamine (Invitrogen, 25030-024) • D-Glucose Solution (10%) (Sigma, G8644) • HEPES Buffer Solution (Sigma, 83264) • Sodium Pyruvate (Sigma, S8636) • PBS (Fisger, BP399-4) • Trypsin/EDTA (Invitrogen 25300-054) • 2% BSA in PBS • Cell Extraction Buffer (Invitrogen FNN0011) • Protease inhibitor cocktail (Sigma P-2714) • PMSF 0.3M stock in DMSO (Sigma P7626) • Antibody—rabbit pMCM2 Ser53 (Bethyl #A300-756A) • Antibody—goat MCM2 (Bethyl #A300-122A) • Antibody—goat Anti Rabbit IgG HRP (Perbio Science UK Ltd 31462) • SuperSignal ELISA Pico Chemiluminescent Substrate (Perbio Science UK Ltd 37070) Method • Plate 30,000 SW48 cells per well in standard TC treated 96 well plate in 100 μL complete RPMI 1640 medium. • Allow cells to settle overnight in incubator set at 37° C. and 5% CO2. • Cell treatment: prepare a 384 well plate containing 80 μl PBS/well. The PBS should be at room temperature—to be referred to as intermediate plate. Transfer 2 μL of compound from mother plate to intermediate (daughter plate) 1:40 dilution, then 5 μL intermediate to cell (daughter) plate. • Once all cells are treated place the cells back to the incubator and incubate for 6 hours. • Dilute the capture antibody (total MCM2 #A300-122A) 1 in 250 in the required volume of PBS (5 mL per assay plate, plus 5 mL for dead volume) and add 50 μL to each well of a Hybond plate. Seal the plate and incubate at room temperature for a minimum of 2 hours. • Defrost aliquot of Invitrogen Cell Extraction Buffer (FNN0011) on ice and supplement with appropriate volume of both Sigma protease inhibitor cocktail (P-2714) and PMSF (final cone 1 mM from a 1 M stock in DMSO). • After the 6 hour cell treatment time, tap out the media from the assay plates and place them in the −80° C. freezer for at least 5 minutes. • Remove plates from freezer and add 20 μL of ice cold complete lysis buffer, with the multidrop. Incubate cells for 30 minutes at 4° C. • Add 80 μL per well 2% BSA. • Flick out the remaining liquid from the capture plate and transfer 80 μL from the lysis plate to the same wells in the capture/ELISA plate, using the Biomek. Cover with plate seal and incubate plates overnight at 4° C. • Wash plates with PBS, remove any residual remaining liquid and add 50 μL per well of pMCM2 Ser53 antibody (#A300-756A) diluted 1 in 100 in 2% BSA. Cover plate and incubate at room temperature for 2 hours with gentle shaking. • Wash plates with PBS, remove any residual remaining liquid and Incubate with 50 μL goat anti rabbit antibody (1 in 800 dilution in 2% BSA), for 1 hour at room temperature. • Wash plates with PBS, remove any residual remaining liquid and add 50 μL mixed SuperSignal Pico substrate. • Incubate each plate for 5 minutes at room temperature shielding the plates from direct light (with a cover plate). Read plates with the luminescent detection. Results

[2] = target: T1, Cdc7; assay: Cdc7 cell pharmacodynamics assay Method 1: pS53MCM2 levels in HCT116 cells; format: cell-based; parameters: endogenous in cells; conditions: 6 hours treatment, read-out: Biomarker Method 1 (pEC50) (converted)
Source text: This protocol describes a method to investigate the inhibition of Cdc7 activity of compounds by measuring pS53MCM2 levels in cells after treatment.
• HCT116 cells (wild type P53 positive) • McCoys 5A media (PAA Laboratories Ltd, E15-022) • 10% FCS (Sera Laboratories International Ltd, EU000F Batch: 108005) • 100× L-Glutamine (Invitrogen, 25030-024) • D-PBS without CaCl2 and MgCl2 (Invitrogen, ref. 14190-094) • Trypsin/EDTA (Invitrogen 25300-054) • 2% BSA in PBS • Cell Extraction Buffer (Invitrogen FNN0011) • Protease inhibitor cocktail (Sigma P-2714) • PMSF 0.3M stock in DMSO (Sigma P7626) • Antibody—rabbit pMCM2 Ser53 (Bethyl #A300-756A) • Antibody—goat MCM2 (Bethyl #A300-122A) • Antibody—goat Anti Rabbit IgG HRP (Perbio Science UK Ltd 31462) • 1×PBS • FACE Wash buffer (0.02% Triton X100 in 1×PBS) • SuperSignal ELISA Pico Chemiluminescent Substrate (Perbio Science UK Ltd 37070) Method • 72 hours prior to the start of the experiment plate 1×10^6 HCT116 cells in a 150 cm^2 flask in complete McCoys 5A media (+10% FCS+1× L-glutamine). • Plate 20,000 HCT116 cells per well in standard TC treated 96 well plate in 100 μL complete McCoys 5A media. • Allow cells to settle overnight in incubator set at 37° C. and 5% CO2. • Remove intermediate plate from fridge and place at 37° C. overnight to allow to equilibrate. • Cell treatment: cell assay plate 100 μL; daughter to cell transfer volume 3.33 μL; daughter volume 45 μL; mother plate to daughter volume 5 μL. • Once all cells are treated remove the cells to the incubator and incubate for 6 hours. • Dilute the capture antibody (total MCM2 #A300-122A) 1 in 250 in the required volume of PBS (5 mL per assay plate) and add 50 μL to each well of a Hybond plate excluding wells 12E to 12H. In these wells add 50 μL PBS. Seal the plate and incubate at room temperature fora minimum of 2 hours. • Defrost aliquot of Invitrogen Cell Extraction Buffer (FNN0011) on ice and supplement with appropriate volume of both Sigma protease inhibitor cocktail (P-2714) and PMSF (final cone 1 mM from a […] in DMSO). • After the 6 hour cell treatment time tap out the media from the assay plates and place them in the −70° C. freezer for at least 5 minutes. • Remove plates from freezer and add 20 μL of ice cold complete lysis buffer on ice. Incubate cells for 30 minutes at 4° C. • Add 80 μL per well 2% BSA. • Transfer 80 μL from the lysis plate to the same wells in the capture/ELISA plate. Cover with plate seal and incubate plates overnight at 4° C. • Wash plates with PBS, remove any residual remaining liquid and add 50 μL per well of pMCM2 Ser53 antibody (#A300-756A) diluted 1 in 100 in 2% BSA. Cover plate and incubate at room temperature for 2 hours with gentle shaking. • Wash plates with PBS, remove any residual remaining liquid and Incubate with 50 μL goat anti rabbit antibody (1 in 800 dilution in 2% BSA) for 1 hour at room temperature. • Wash plates with PBS, remove any residual remaining liquid and add 50 μL mixed SuperSignal Pico substrate. • Incubate each plate for 5 minutes at room temperature shielding the plates from direct light (with a cover plate). Read plates with the luminescent detection. Method 2

T1 sequence (O00311 whole entry): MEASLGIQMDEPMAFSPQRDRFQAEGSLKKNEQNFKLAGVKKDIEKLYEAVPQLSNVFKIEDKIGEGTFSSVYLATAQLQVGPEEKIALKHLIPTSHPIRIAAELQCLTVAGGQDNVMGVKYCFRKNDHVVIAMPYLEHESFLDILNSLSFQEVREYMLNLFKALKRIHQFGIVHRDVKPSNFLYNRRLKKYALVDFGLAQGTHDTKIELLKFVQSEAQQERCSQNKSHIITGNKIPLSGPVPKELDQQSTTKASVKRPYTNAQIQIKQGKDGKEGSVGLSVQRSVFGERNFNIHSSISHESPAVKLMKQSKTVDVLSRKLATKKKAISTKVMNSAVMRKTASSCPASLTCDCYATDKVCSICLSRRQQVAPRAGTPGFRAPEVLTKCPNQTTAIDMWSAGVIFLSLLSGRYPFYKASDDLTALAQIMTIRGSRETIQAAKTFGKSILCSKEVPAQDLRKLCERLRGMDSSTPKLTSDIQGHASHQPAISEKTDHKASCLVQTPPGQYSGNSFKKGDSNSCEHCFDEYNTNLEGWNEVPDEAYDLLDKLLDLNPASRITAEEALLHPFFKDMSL
T1 sequence (Q9UBU7 whole entry partner): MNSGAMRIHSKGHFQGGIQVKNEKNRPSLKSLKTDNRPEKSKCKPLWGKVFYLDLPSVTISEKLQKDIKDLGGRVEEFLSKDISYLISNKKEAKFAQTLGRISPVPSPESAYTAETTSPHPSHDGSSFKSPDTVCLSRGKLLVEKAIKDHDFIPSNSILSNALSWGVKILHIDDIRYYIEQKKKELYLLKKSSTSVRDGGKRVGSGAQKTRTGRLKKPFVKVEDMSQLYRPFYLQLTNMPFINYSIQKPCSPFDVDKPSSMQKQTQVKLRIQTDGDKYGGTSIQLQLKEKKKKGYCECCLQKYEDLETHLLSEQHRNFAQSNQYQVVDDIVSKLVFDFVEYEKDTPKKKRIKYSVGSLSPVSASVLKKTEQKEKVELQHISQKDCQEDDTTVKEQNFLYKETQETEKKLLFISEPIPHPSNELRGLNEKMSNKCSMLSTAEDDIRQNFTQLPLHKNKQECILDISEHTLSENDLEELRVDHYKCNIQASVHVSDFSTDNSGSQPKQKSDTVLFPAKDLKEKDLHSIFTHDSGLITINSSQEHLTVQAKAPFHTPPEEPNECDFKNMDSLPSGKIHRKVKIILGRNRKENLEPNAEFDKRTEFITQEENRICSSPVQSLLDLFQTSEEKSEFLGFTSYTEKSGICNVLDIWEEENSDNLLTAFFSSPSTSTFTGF

Structure (SMILES)	EC50 [1]	EC50 [2]
C[C@@H]1CNCCN1c1nc(-c2cn[nH]c2C(F)(F)F)[nH]c(=O)c1Cl [Compound 44, 5-chloro-4-[(2R)-2-methylpiperazin-1-yl]-2-[5-(trifluoromethyl)-1H-pyrazol-4-yl]-1H-pyrimidin-6-one]	724 nM	
C[C@@H]1CNCCN1c1nc(-c2cn[nH]c2Cl)[nH]c(=O)c1Cl [Compound 43, 5-chloro-2-(5-chloro-1H-pyrazol-4-yl)-4-[(2R)-2-methylpiperazin-1-yl]-1H-pyrimidin-6-one]	347 nM	
Cc1ncsc1-c1nc(N2CCN[C@@H](C(F)(F)F)C2)c(Cl)c(=O)[nH]1 [Compound 28, 5-chloro-2-(4-methylthiazol-5-yl)-4-[(3R)-3-(trifluoromethyl)piperazin-1-yl]-1H-pyrimidin-6-one]	1100 nM	45.7 nM
C[C@@H]1COCCN1c1nc(-c2cn[nH]c2C(F)(F)F)[nH]c(=O)c1Cl [Compound 41, 5-chloro-4-[(3R)-3-methylmorpholin-4-yl]-2-[5-(trifluoromethyl)-1H-pyrazol-4-yl]-1H-pyrimidin-6-one]	316 nM	

Now from value to compound:

EC50 [1]	EC50 [2]	Structure (SMILES)
	112 nM	O=c1[nH]c(-c2cn[nH]c2C(F)(F)F)nc(C2CCOCC2)c1Cl [Compound 17, 5-chloro-4-tetrahydropyran-4-yl-2-[5-(trifluoromethyl)-1H-pyrazol-4-yl]-1H-pyrimidin-6-one]
1480 nM	45.7 nM	O=c1[nH]c(-c2scnc2Cl)nc(C2CCOCC2)c1Cl [Compound 4, 5-chloro-2-(4-chlorothiazol-5-yl)-4-tetrahydropyran-4-yl-1H-pyrimidin-6-one]
2450 nM	158 nM	O=c1[nH]c(-c2scnc2C(F)(F)F)nc(C2CCOCC2)c1Cl [Compound 14, 5-chloro-4-tetrahydropyran-4-yl-2-[4-(trifluoromethyl)thiazol-5-yl]-1H-pyrimidin-6-one]
2090 nM	107 nM	Cc1ncsc1-c1nc(C2CCOCC2)c(Cl)c(=O)[nH]1 [Compound 6, 5-chloro-2-(4-methylthiazol-5-yl)-4-tetrahydropyran-4-yl-1H-pyrimidin-6-one]
